Assay: recombinant barcode read abundance after kanamycin selection (control-corrected) (log10(CPM+1)); higher = more efficient recombination; sequences stand for … in AGTGCAGAGAAAATCGGCCAGTTTTCTCTGCCTGCAGTCCGCATGCCGT…AGATTTATGCAGCGGACTGCCTTTCTCCCAAAGTGATAAACCGGACAGTATCATGGACCGGTTTTCCCGGTAATCCGTATTTGCAAGGTTGGTTTCACT; site = the 11-nt target
Method in brief: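 Targets and IS621 bridge RNA target-binding loops were paired in oligos, each with a promoter, a barcode and the J23119-driven first 104 bridge RNA bases. A vector carrying the remaining 73 bp and a T7-inducible recombinase received these by Gibson cloning, and the pool was co-electroporated into E. coli with a donor plasmid. Duplicate plates contained chloramphenicol/ampicillin LB agar (control) or chloramphenicol/ampicillin/kanamycin with 0.1 mM IPTG. Recombination efficiency comes from averaged, control-corrected counts per million of recombinant-junction barcodes, reported as log10(CPM+1).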
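Also: IS621 recombinase and bridge RNA in Escherichia coli cells.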

“ATCGTACCTTGGGTTCTAACCTGTTGCTG (site ATCCTACCTAA)” and “ATCGTACCTTGGGTTCTAACCTGTTGCTG (site ATCGTACCTCA)” are within 0.2 log units of each other in “recombinant barcode read abundance (log10)” value: 0.167 for the first, 0.123 for the second.

Going from “ATCTGTTCTTGGGTTCTAACCTGTTGCCT (site ACCTGTGCTAG)” to “ATCTGTTCTTGGGTTCTAACCTGTTGCCT (site ATCTGTTCTAG)”, the “recombinant barcode read abundance (log10)” value rises from 0.108 to 0.327.

“ATCTTAGCTTGGGTTCTAACCTGTTGCCT (site ATCTTAACTAG)” and “ATCTTAGCTTGGGTTCTAACCTGTTGCCT (site ATCTTACCTAG)” are within 0.2 log units of each other in “recombinant barcode read abundance (log10)” value: 0.0917 for the first, 0.141 for the second.

“ATCTTAGCTTGGGTTCTAACCTGTTGCCT (site ATCTTAGCTAG)” and “ATCTTAGCTTGGGTTCTAACCTGTTGCCT (site ATCTTATCTAG)” are within 0.2 log units of each other in “recombinant barcode read abundance (log10)” value: 0.266 for the first, 0.197 for the second.

“ATCTTGTCTTGGGTTCTAACCTGTTGCCG (site ATCTTGTCTAG)” and “ATCTTGTCTTGGGTTCTAACCTGTTGCCG (site ATCTTGTCTCG)” are within 0.2 log units of each other in “recombinant barcode read abundance (log10)” value: 0.264 for the first, 0.0848 for the second.

Going from “ATCTTGTCTTGGGTTCTAACCTGTTGCGG (site ATCTTGTCTCC)” to “ATCTTGTCTTGGGTTCTAACCTGTTGCGG (site CATGATACTAG)”, the “recombinant barcode read abundance (log10)” value falls from 1.83 to 0.102.

Compared with “ATGAATGCTTGGGTTCTAACCTGTTGCCT (site ATGAATGCTAG)”, “ATGAATGCTTGGGTTCTAACCTGTTGCCT (site ATGATTGCTAG)” is lower in “recombinant barcode read abundance (log10)” value: 1.78 for the first, 0.0173 for the second.

Compared with “ATGACCTCTTGGGTTCTAACCTGTTGCCT (site ATGACCTCTAG)”, “ATGACCTCTTGGGTTCTAACCTGTTGCCT (site ATGCCCTCTAG)” is lower in “recombinant barcode read abundance (log10)” value: 1.46 for the first, 0.0297 for the second.

First: ATGACCTCTTGGGTTCTAACCTGTTGCCT (site ATGGCCTCTAG)
Second: ATGACCTCTTGGGTTCTAACCTGTTGCCT (site ATGTCCTCTAG)
The “recombinant barcode read abundance (log10)” value of the first is higher: 0.46 for the first, 0.0902 for the second.

First: ATGAGAACTTGGGTTCTAACCTGTTGCCG (site ATGAGAACTAG)
Second: ATGAGAACTTGGGTTCTAACCTGTTGCCG (site ATGAGAACTCG)
The “recombinant barcode read abundance (log10)” value of the first is higher: 1.58 for the first, 1.05 for the second.

Going from “ATGAGGACTTGGGTTCTAACCTGTTGCGT (site ATGAGGACTAC)” to “ATGAGGACTTGGGTTCTAACCTGTTGCGT (site CACCCCTCTCG)”, the “recombinant barcode read abundance (log10)” value falls from 2.45 to 0.14.

Going from “ATGAGGCCTTGGGTTCTAACCTGTTGCCT (site ATGAGGCCTAG)” to “ATGAGGCCTTGGGTTCTAACCTGTTGCCT (site CTGAGGCCTAG)”, the “recombinant barcode read abundance (log10)” value falls from 0.858 to 0.115.

“ATGAGGCCTTGGGTTCTAACCTGTTGCCT (site GTGAGGCCTAG)” and “ATGAGGCCTTGGGTTCTAACCTGTTGCCT (site TTGAGGCCTAG)” are within 0.2 log units of each other in “recombinant barcode read abundance (log10)” value: 0.173 for the first, 0.209 for the second.

Going from “ATGCAAGCTTGGGTTCTAACCTGTTGCCT (site ATGCAAACTAG)” to “ATGCAAGCTTGGGTTCTAACCTGTTGCCT (site ATGCAACCTAG)”, the “recombinant barcode read abundance (log10)” value falls from 0.898 to 0.0657.

Compared with “ATGCAAGCTTGGGTTCTAACCTGTTGCCT (site ATGCAAGCTAG)”, “ATGCAAGCTTGGGTTCTAACCTGTTGCCT (site ATGCAATCTAG)” is lower in “recombinant barcode read abundance (log10)” value: 1.48 for the first, 0.234 for the second.

“ATGCATCCTTGGGTTCTAACCTGTTGCCT (site AAGCATCCTAG)” and “ATGCATCCTTGGGTTCTAACCTGTTGCCT (site ACGCATCCTAG)” are within 0.2 log units of each other in “recombinant barcode read abundance (log10)” value: 0.0651 for the first, 0.0924 for the second.

First: ATGCATCCTTGGGTTCTAACCTGTTGCCT (site AGGCATCCTAG)
Second: ATGCATCCTTGGGTTCTAACCTGTTGCCT (site ATGCATCCTAG)
The “recombinant barcode read abundance (log10)” value of the first is lower: 0 for the first, 1.99 for the second.

Going from “ATGCCATCTTGGGTTCTAACCTGTTGCCT (site ATACCATCTAG)” to “ATGCCATCTTGGGTTCTAACCTGTTGCCT (site ATCCCATCTAG)”, the “recombinant barcode read abundance (log10)” value rises from 0.434 to 0.885.

Compared with “ATGCCATCTTGGGTTCTAACCTGTTGCCT (site ATGCCATCTAG)”, “ATGCCATCTTGGGTTCTAACCTGTTGCCT (site ATTCCATCTAG)” is lower in “recombinant barcode read abundance (log10)” value: 0.503 for the first, 0.149 for the second.

First: ATGGACACTTGGGTTCTAACCTGTTGCGT (site ATGGACACTAC)
Second: ATGGACACTTGGGTTCTAACCTGTTGCGT (site GACTGGCCTCT)
The “recombinant barcode read abundance (log10)” value of the first is higher: 1.93 for the first, 0.133 for the second.

First: ATGGCGCCTTGGGTTCTAACCTGTTGCCT (site AAGGCGCCTAG)
Second: ATGGCGCCTTGGGTTCTAACCTGTTGCCT (site ACGGCGCCTAG)
The “recombinant barcode read abundance (log10)” value of the first is lower: 0.296 for the first, 0.846 for the second.

With “ATGGCGCCTTGGGTTCTAACCTGTTGCCT (site AGGGCGCCTAG)” the “recombinant barcode read abundance (log10)” value was 0.183.
